# Experimental data from patent US10167262B2, “Herbicidal substituted 3-arylpyrazoles” (FMC CORPORATION, priority 2014, dated 2019).
# Assays:
# Assay type in all cases: in vivo
# [1] = test system: barnyardgrass (Echinochloa crus-galli); assay: Test A pre-/postemergence greenhouse herbicide test, visual injury rating 0-100
# Method in brief: (§1)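 Test chemicals in a non-phytotoxic solvent/surfactant blend were sprayed onto loam–sand soil after planting (pre) and onto 2–10 cm seedlings at one to two leaves (post). Greenhouse hold approx. 10 days; injury then judged visually.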
# corn (Zea mays) = assay: as above
# Method in brief: as §1
# [2] = test system: giant foxtail (Setaria faberii); assay: as above
# Method in brief: as §1
# [3] = test system: large (Lg) crabgrass (Digitaria sanguinalis); assay: as above
# Method in brief: as §1
# [4] = test system: morningglory (Ipomoea spp.); assay: as above
# Method in brief: as §1
# [5] = test system: pigweed (Amaranthus retroflexus); assay: as above
# Method in brief: as §1
# [6] = test system: velvetleaf (Abutilon theophrasti); assay: as above
# Method in brief: as §1
# [7] = test system: wheat (Triticum aestivum); assay: as above
# Method in brief: as §1
# [8] = test system: blackgrass (Alopecurus myosuroides); assay: Test C pre-/postemergence greenhouse test, plant response rating 0-100
# Source text: (§2) Seeds of plant species selected from blackgrass (Alopecurus myosuroides), Italian ryegrass (Lolium multiflorum), winter wheat (Triticum aestivum), galium (catchweed bedstraw, Galium aparine), corn (Zea mays), large (Lg) crabgrass (Digitaria sanguinalis), giant foxtail (Setaria faberii), johnsongrass (Sorghum halepense), lambsquarters (Chenopodium album), morningglory (Ipomoea coccinea), yellow nutsedge (Cyperus esculentus), pigweed (Amaranthus retroflexus), ragweed (common ragweed, Ambrosia elatior), soybean (Glycine max), barnyardgrass (Echinochloa crus-galli), oilseed rape (Brassica napus), waterhemp (common waterhemp, Amaranthus rudis), and velvetleaf (Abutilon theophrasti) were planted into a blend of loam soil and sand and treated preemergence with test chemicals formulated in a non-phytotoxic solvent mixture which included a surfactant.
# (§3) At the same time, plants selected from these crop and weed species and also winter barley (Hordeum vulgare), bermudagrass (Cynodon dactylon), downy bromegrass (Bromus tectorum), canarygrass (Phalaris minor), cocklebur (common cocklebur, Xanthium strumarium), woolly cupgrass (Eriochloa villosa), deadnettle (henbit deadnettle, Lamium amplexicaule), green foxtail (Setaria viridis), goosegrass (Eleusine indica), surinam grass (Brachiaria decumbens), windgrass (Apera spica-venti), chickweed (common chickweed, Stellaria media), kochia (Kochia scoparia), and wild oat (Avena fatua), were planted in pots containing Redi-Earth® planting medium (Scotts Company, 14111 Scottslawn Road, Marysville, Ohio 43041) comprising spaghnum peat moss, vermiculite, wetting agent and starter nutrients and treated with postemergence applications of test chemicals formulated in the same manner. Plants ranged in height from 2 to 18 cm (1- to 4-leaf stage) for postemergence treatments. Treated plants and controls were maintained in a greenhouse for 13 to 15 days, after which time all species were compared to controls and visually evaluated. Plant response ratings, summarized in Table C, are based on a scale of 0 to 100 where 0 is no effect and 100 is complete control. A dash (-) response means no test result.
# [9] = test system: large (Lg) crabgrass (Digitaria sanguinalis); assay: as above
# Source text: as §2, §3
# [10] = test system: morningglory (Ipomoea coccinea); assay: as above
# Source text: as §2, §3
# [11] = test system: ragweed (common ragweed, Ambrosia elatior); assay: as above
# Source text: as §2, §3
# [12] = test system: velvetleaf (Abutilon theophrasti); assay: as above
# Source text: as §2, §3
# [13] = Postemergence, 250 g ai/ha, scale 0 to 100
# [14] = Postemergence, 500 g ai/ha, scale 0 to 100
# [15] = Preemergence, 0 to 100 scale (0 no effect, 100 complete control), rate 500 g ai/ha per head r3, sub-head of this section not shown
smiles,measurement,setting,value
O=C(c1ccccc1)c1cn(S(=O)(=O)CC(F)(F)F)nc1-c1cc(Cl)cc(Cl)c1 [Compound 3],"Plant response rating (0 to 100 scale), Barnyardgrass","[1]; Postemergence, 125 g ai/ha",0
same,"Plant response rating (0 to 100 scale), Barnyardgrass","[1]; Postemergence, 500 g ai/ha",0
same,"Barnyardgrass plant response rating (0 = no effect, 100 = complete control)","[1]; Preemergence, 125 g ai/ha",0
same,"Plant response rating (0 to 100 scale), Barnyardgrass","[1]; Preemergence, 500 g ai/ha",0
same,"Plant response rating (0 to 100 scale), Corn","corn (Zea mays); Postemergence, 125 g ai/ha",0
same,"Plant response rating (0 to 100 scale), Corn","corn (Zea mays); Postemergence, 500 g ai/ha",0
same,"Corn plant response rating (0 = no effect, 100 = complete control)","corn (Zea mays); Preemergence, 125 g ai/ha",0
same,"Plant response rating (0 to 100 scale), Corn","corn (Zea mays); Preemergence, 500 g ai/ha",0
same,"Plant response rating (0 to 100 scale), Foxtail, Giant","[2]; Postemergence, 125 g ai/ha",0
same,"Plant response rating (0 to 100 scale), Foxtail, Giant","[2]; Postemergence, 500 g ai/ha",0
same,"Foxtail, Giant plant response rating (0 = no effect, 100 = complete control)","[2]; Preemergence, 125 g ai/ha",0
same,"Plant response rating (0 to 100 scale), Foxtail, Giant","[2]; Preemergence, 500 g ai/ha",0
same,"Plant response rating (0 to 100 scale), Crabgrass, Large","[3]; Postemergence, 125 g ai/ha",0
same,"Plant response rating (0 to 100 scale), Crabgrass, Large","[3]; Postemergence, 500 g ai/ha",0
same,"Crabgrass, Large plant response rating (0 = no effect, 100 = complete control)","[3]; Preemergence, 125 g ai/ha",0
same,"Plant response rating (0 to 100 scale), Crabgrass, Large","[3]; Preemergence, 500 g ai/ha",0
same,"Plant response rating (0 to 100 scale), Morningglory","[4]; Postemergence, 125 g ai/ha",0
same,"Plant response rating (0 to 100 scale), Morningglory","[4]; Postemergence, 500 g ai/ha",0
same,"Morningglory plant response rating (0 = no effect, 100 = complete control)","[4]; Preemergence, 125 g ai/ha",0
same,"Plant response rating (0 to 100 scale), Morningglory","[4]; Preemergence, 500 g ai/ha",0
same,"Plant response rating (0 to 100 scale), Pigweed","[5]; Postemergence, 125 g ai/ha",80
same,"Plant response rating (0 to 100 scale), Pigweed","[5]; Postemergence, 500 g ai/ha",100
same,"Pigweed plant response rating (0 = no effect, 100 = complete control)","[5]; Preemergence, 125 g ai/ha",60
same,"Plant response rating (0 to 100 scale), Pigweed","[5]; Preemergence, 500 g ai/ha",80
same,"Plant response rating (0 to 100 scale), Velvetleaf","[6]; Postemergence, 125 g ai/ha",90
same,"Plant response rating (0 to 100 scale), Velvetleaf","[6]; Postemergence, 500 g ai/ha",100
same,"Velvetleaf plant response rating (0 = no effect, 100 = complete control)","[6]; Preemergence, 125 g ai/ha",0
same,"Plant response rating (0 to 100 scale), Velvetleaf","[6]; Preemergence, 500 g ai/ha",50
same,"Plant response rating (0 to 100 scale), Wheat","[7]; Postemergence, 125 g ai/ha",0
same,"Plant response rating (0 to 100 scale), Wheat","[7]; Postemergence, 500 g ai/ha",0
same,"Wheat plant response rating (0 = no effect, 100 = complete control)","[7]; Preemergence, 125 g ai/ha",0
same,"Plant response rating (0 to 100 scale), Wheat","[7]; Preemergence, 500 g ai/ha",0
same,"Plant response rating (0 to 100), Blackgrass","[8]; Postemergence, 62 g ai/ha",0
same,"Plant response rating, Blackgrass","[8]; Postemergence, 125 g ai/ha, scale 0 to 100",0
same,"Plant response rating, Blackgrass",[8]; [13],0
same,"Plant response rating, Blackgrass",[8]; [14],0
same,"Plant response rating, Blackgrass","[8]; Preemergence, 62 g ai/ha",0
same,"Plant response rating, Blackgrass","[8]; Preemergence, 125 g ai/ha",0
same,"Plant response rating, Blackgrass","[8]; Preemergence, 250 g ai/ha",0
same,"Plant response rating, Blackgrass","[8]; Preemergence, 500 g ai/ha",0
same,"Plant response rating (0 to 100), Crabgrass, Large","[9]; Postemergence, 62 g ai/ha",0
same,"Plant response rating (0 to 100), Crabgrass, Large","[9]; Postemergence, 125 g ai/ha",5
same,"Plant response rating, Crabgrass, Large",[9]; [13],5
same,"Plant response rating, Crabgrass, Large",[9]; [14],5
same,"Plant response rating, Crabgrass, Large","[9]; Preemergence, 62 g ai/ha",0
same,"Plant response rating, Crabgrass, Large","[9]; Preemergence, 125 g ai/ha",0
same,"Plant response rating, Crabgrass, Large","[9]; Preemergence, 250 g ai/ha",0
same,"Plant response rating, Crabgrass, Large","[9]; Preemergence, 500 g ai/ha",0
same,"Plant response rating (0 to 100), Morningglory","[10]; Postemergence, 62 g ai/ha",0
same,"Plant response rating (0 to 100), Morningglory","[10]; Postemergence, 125 g ai/ha",0
same,"Plant response rating, Morningglory",[10]; [13],0
same,"Plant response rating, Morningglory",[10]; [14],0
same,"Plant response rating, Morningglory","[10]; Preemergence, 62 g ai/ha",0
same,"Plant response rating, Morningglory","[10]; Preemergence, 125 g ai/ha",0
same,"Plant response rating, Morningglory","[10]; Preemergence, 250 g ai/ha",10
same,"Plant response rating, Morningglory","[10]; Preemergence, 500 g ai/ha",10
same,"Plant response rating (0 to 100), Ragweed","[11]; Postemergence, 62 g ai/ha",20
same,"Plant response rating (0 to 100), Ragweed","[11]; Postemergence, 125 g ai/ha",25
same,"Plant response rating, Ragweed",[11]; [13],65
same,"Plant response rating, Ragweed",[11]; [14],65
same,"Plant response rating, Ragweed","[11]; Preemergence, 62 g ai/ha",0
same,"Plant response rating, Ragweed","[11]; Preemergence, 125 g ai/ha",0
same,"Plant response rating, Ragweed","[11]; Preemergence, 250 g ai/ha",70
same,"Plant response rating, Ragweed","[11]; Preemergence, 500 g ai/ha",95
same,"Plant response rating, Ragweed",[11]; [15],35
same,"Plant response rating (0 to 100), Velvetleaf","[12]; Postemergence, 62 g ai/ha",70
same,"Plant response rating (0 to 100), Velvetleaf","[12]; Postemergence, 125 g ai/ha",70
same,"Plant response rating, Velvetleaf",[12]; [13],75
same,"Plant response rating, Velvetleaf",[12]; [14],85
same,"Plant response rating, Velvetleaf","[12]; Preemergence, 62 g ai/ha",50
same,"Plant response rating, Velvetleaf","[12]; Preemergence, 250 g ai/ha",55
same,"Plant response rating, Velvetleaf","[12]; Preemergence, 500 g ai/ha",100
same,"Plant response rating, Velvetleaf",[12]; [15],20
